Results: patent publication US9458110B2, “Phenylpyrazole derivatives as potent ROCK1 and ROCK2 inhibitors” (BRISTOL-MYERS SQUIBB COMPANY, priority 2013, dated 2016)

Key:
[1] = target: ROCK1 (Homo sapiens (Human), UniProt Q13464); assay: ROCK assay (Caliper LABCHIP peptide phosphorylation), ROCK1; type: biochemical; details: 5 μM ATP, 1.5 μM peptide substrate;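 further: Read-out is separation of phosphorylated from unphosphorylated peptide, with kinase activity inhibition computed at every concentration of a dose-response series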
ROCK1, sequence (Q13464 whole entry, species assumed): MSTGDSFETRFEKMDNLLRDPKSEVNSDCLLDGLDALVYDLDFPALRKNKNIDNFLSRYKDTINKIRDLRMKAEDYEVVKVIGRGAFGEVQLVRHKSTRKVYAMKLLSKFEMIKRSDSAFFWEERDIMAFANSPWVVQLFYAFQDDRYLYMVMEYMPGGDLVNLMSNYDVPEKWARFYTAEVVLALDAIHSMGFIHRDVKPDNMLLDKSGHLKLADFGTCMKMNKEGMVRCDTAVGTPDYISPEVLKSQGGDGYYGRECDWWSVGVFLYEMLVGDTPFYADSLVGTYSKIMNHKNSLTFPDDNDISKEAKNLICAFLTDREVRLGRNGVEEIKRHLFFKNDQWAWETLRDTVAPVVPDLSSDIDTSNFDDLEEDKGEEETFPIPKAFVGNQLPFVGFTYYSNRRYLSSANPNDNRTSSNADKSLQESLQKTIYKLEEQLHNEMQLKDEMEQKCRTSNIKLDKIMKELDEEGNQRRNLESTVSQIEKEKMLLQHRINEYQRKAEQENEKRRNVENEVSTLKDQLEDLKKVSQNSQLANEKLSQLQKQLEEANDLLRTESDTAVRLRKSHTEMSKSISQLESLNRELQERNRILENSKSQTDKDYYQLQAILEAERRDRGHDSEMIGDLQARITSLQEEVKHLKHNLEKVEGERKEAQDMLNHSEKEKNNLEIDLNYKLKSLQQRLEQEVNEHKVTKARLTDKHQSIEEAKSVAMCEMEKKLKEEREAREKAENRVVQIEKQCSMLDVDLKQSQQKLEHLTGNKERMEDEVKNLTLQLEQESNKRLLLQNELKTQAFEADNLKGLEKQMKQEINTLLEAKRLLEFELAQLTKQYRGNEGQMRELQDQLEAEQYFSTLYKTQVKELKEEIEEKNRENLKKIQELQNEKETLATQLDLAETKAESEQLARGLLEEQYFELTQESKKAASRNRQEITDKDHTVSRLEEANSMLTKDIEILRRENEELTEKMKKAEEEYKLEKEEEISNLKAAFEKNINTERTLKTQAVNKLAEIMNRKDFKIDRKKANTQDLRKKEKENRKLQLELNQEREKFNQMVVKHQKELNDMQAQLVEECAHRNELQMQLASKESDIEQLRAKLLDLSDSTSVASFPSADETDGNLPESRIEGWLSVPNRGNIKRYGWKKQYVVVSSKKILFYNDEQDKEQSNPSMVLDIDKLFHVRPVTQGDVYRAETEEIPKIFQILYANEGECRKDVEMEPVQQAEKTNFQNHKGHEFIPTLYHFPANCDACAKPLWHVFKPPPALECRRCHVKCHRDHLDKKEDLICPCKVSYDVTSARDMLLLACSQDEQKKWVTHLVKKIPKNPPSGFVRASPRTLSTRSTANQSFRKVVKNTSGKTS

[2] = target: ROCK2 (Homo sapiens (Human), UniProt O75116); assay: ROCK assay (Caliper LABCHIP peptide phosphorylation), ROCK2; type: biochemical; details: 5 μM ATP, 1.5 μM peptide substrate;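 further: reaction stopped with EDTA, then phosphorylated and unphosphorylated peptide resolved by microfluidic electrophoresis, kinase inhibition computed at each compound concentration in dose-response series, DMSO under 2%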
ROCK2, sequence (O75116 whole entry, species assumed): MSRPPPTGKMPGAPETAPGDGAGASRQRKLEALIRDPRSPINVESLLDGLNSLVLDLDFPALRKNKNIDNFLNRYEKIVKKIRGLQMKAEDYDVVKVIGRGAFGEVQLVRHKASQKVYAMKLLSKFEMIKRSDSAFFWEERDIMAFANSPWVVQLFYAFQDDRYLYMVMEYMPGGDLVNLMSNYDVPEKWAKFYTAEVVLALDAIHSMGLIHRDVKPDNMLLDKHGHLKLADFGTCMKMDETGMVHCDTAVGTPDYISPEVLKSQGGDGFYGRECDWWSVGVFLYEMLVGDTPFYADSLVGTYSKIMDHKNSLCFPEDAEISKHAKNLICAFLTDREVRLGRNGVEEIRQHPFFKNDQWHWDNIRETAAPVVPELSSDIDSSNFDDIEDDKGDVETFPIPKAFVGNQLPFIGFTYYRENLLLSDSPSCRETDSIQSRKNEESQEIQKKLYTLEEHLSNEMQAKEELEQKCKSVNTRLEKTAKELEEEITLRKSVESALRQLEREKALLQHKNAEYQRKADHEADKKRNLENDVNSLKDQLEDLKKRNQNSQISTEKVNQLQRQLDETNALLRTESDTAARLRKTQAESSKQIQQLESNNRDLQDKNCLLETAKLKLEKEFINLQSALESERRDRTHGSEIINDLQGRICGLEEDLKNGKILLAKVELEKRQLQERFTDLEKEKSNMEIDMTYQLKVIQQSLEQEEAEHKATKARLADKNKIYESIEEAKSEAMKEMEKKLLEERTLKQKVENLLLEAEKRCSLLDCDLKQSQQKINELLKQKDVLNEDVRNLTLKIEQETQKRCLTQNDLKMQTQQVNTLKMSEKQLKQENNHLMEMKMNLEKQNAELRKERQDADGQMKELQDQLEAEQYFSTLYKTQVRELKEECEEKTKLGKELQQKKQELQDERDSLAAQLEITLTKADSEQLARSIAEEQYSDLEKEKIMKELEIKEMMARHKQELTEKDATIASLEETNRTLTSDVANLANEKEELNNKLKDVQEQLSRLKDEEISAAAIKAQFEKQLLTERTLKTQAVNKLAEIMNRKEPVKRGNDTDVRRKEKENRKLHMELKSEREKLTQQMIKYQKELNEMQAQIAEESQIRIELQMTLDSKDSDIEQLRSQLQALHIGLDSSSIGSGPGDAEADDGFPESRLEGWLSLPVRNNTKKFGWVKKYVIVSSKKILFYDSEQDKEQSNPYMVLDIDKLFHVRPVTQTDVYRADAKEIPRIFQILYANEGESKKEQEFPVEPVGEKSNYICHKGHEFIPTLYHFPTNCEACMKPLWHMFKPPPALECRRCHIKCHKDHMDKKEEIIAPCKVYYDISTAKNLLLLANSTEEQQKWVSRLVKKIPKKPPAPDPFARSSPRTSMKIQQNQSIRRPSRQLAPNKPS

IC50 [1] | IC50 [2] | SMILES
1790 nM | 452 nM | C[C@@H](NC(=O)c1ccc(-c2cn[nH]c2)c(OCC(C)(C)O)c1)c1ccccc1 [Example 154, 3-(2-hydroxy-2-methylpropoxy)-N-[(1R)-1-phenylethyl]-4-(1H-pyrazol-4-yl)benzamide]
16.9 nM | 4.69 nM | COc1cc(C(=O)NCc2ccc(Br)cc2Cl)ccc1-c1cn[nH]c1 [Example 45, N-(4-bromo-2-chlorobenzyl)-3-methoxy-4-(1H-pyrazol-4-yl)benzamide]
3.26 nM | 1.75 nM | COc1cc(-c2cn[nH]c2)ccc1C(=O)NCc1ccc(F)cc1Cl [Example 210, N-[(2-chloro-4-fluorophenyl)methyl]-2-methoxy-4-(1H-pyrazol-4-yl)benzamide]
16.9 nM | 2.28 nM | COc1cccc(CNC(=O)c2ccc(-c3cn[nH]c3)c(C)c2)c1 [Example 58, N-(3-Methoxybenzyl)-3-methyl-4-(1H-pyrazol-4-yl)benzamide]
242 nM | 336 nM | CC(O)c1cc(C(=O)N[C@H](C)c2ccccc2F)ccc1-c1cn[nH]c1 (stereo partly drawn) [Example 282, N-[(1R)-1-(2-fluorophenyl)ethyl]-3-(1-hydroxyethyl)-4-(1H-pyrazol-4-yl)benzamide]
499 nM | 93.7 nM | COc1cc(C(=O)NCc2cccc(C(=O)N(C)C)c2)ccc1-c1cn[nH]c1 [Example 235, N-{[3-(dimethyl-carbamoyl)phenyl]methyl}-3-methoxy-4-(1H-pyrazol-4-yl)benzamide]
150 nM | 446 nM | CC(O)c1cc(C(=O)NC(C)c2c(F)cccc2F)ccc1-c1cn[nH]c1 (stereo not drawn) [Example 288, N-[1-(2,6-difluorophenyl)ethyl]-3-(1-hydroxyethyl)-4-(1H-pyrazol-4-yl)benzamide]
50.1 nM | 27 nM | COc1cc(C(=O)N[C@H](C)c2ccc3c(c2)CCO3)ccc1-c1cn[nH]c1 [Example 106, N-[(1R)-1-(2,3-dihydro-1-benzofuran-5-yl)ethyl]-3-methoxy-4-(1H-pyrazol-4-yl)benzamide]
50.8 nM | 11.4 nM | CCOc1cc(C(=O)N[C@H](CO)c2ccccc2)ccc1-c1cn[nH]c1 [Example 192, 3-ethoxy-N-[(1S)-2-hydroxy-1-phenylethyl]-4-(1H-pyrazol-4-yl)benzamide]
284 nM | 58.8 nM | C[C@@H](NC(=O)c1ccc(-c2cn[nH]c2)c(CO)c1)c1ccccc1 [Example 272, 3-(hydroxymethyl)-N-[(1R)-1-phenylethyl]-4-(1H-pyrazol-4-yl)benzamide]
64.2 nM | 23.4 nM | COc1cc(-c2cn[nH]c2)ccc1C(=O)N[C@H](CO)[C@H](O)c1ccccc1 [Example 215, N-[(1R,2R)-1,3-dihydroxy-1-phenylpropan-2-yl]-2-methoxy-4-(1H-pyrazol-4-yl)benzamide]
97.2 nM | 10.9 nM | CC(=O)NC[C@@H](NC(=O)c1ccc(-c2cn[nH]c2)c(C)c1)c1ccccc1 [Example 255, N-[(2S)-2-{[3-Methyl-4-(1H-pyrazol-4-yl)phenyl]formamido}-2-phenylethyl]acetamide]
184 nM | 60.4 nM | COc1cc(C(=O)NCc2ccccn2)ccc1-c1cn[nH]c1 [Example 15, 3-methoxy-4-(1H-pyrazol-4-yl)-N-(pyridin-2-ylmethyl) benzamide]
92.9 nM | 59.6 nM | COc1cccc(CCNC(=O)c2ccc(-c3cn[nH]c3)c(OC)c2)c1 [Example 114, 3-methoxy-N-[2-(3-methoxyphenyl)ethyl]-4-(1H-pyrazol-4-yl)benzamide]

SMILES | IC50 [1] | IC50 [2]
COC(=O)c1n[nH]cc1-c1ccc(C(=O)N[C@H](C)c2cccc(OC)c2)c(OC)c1 [Example 302, (R)-Methyl 4-(3-methoxy-4-((1-(3-methoxyphenyl)ethyl)carbamoyl)phenyl)-1H-pyrazole-3-carboxylate] | 70.9 nM | 69.6 nM
